In patent US20240390388A1, “TRICYCLIC COMPOUNDS AND USE THEREOF” (MEDSHINE DISCOVERY INC., priority 2021, published 2024):
Like-named read-outs stand apart in the source and are kept apart here.

What was measured:
PI3K β = molecular target: T1, PI3K β (Homo sapiens, UniProt P42338); assay: Enzyme activity test in vitro (ADP-Glo lipid kinase), PI3K β; format: biochemical; conditions: ATP 40 μM, 120 min
T1 construct: purchased Promega V1751
Experimental: (§1) The lipid kinase reaction was carried out under the conditions of the appropriate substrate and ATP. Then the kinase activity was tested with the ADP-Glo™ kit in two steps. Step 1: The kinase reaction was terminated, in which residual ATP was completely removed, and only ADP was remained; Step 2: Kinase test reagent was added to convert ADP into ATP, accompanied by luciferin/luciferase reaction. Finally, the […] numerical output value was converted into kinase activity.
(§2) b) Kit: ADP-Glo™ Lipid Kinase and PIP2: 3PS Kit (Promega #V1792)
(§3) b) Final test system conditions: 1× reaction system: 50 mM HEPES, 50 mM NaCl, 3 mM MgCl2, 0.01% BSA (freshly prepared on the day of the experiment), 1% DMSO (v/v) +/−compound
(§4) c) Reaction system: 3 μL mixture of enzyme and substrate (1:1)+2 μL ATP/MgCl2 mixture +5 μL ADP-Glo reagent+10 μL assay reagent.
(§5) a) Compound dilution: 50 nL of 100× compound/DMSO was transferred to the test well plate with Echo
(§6) For PI3K β/PI3K δ/PI3K γ, the compounds were diluted three-fold from the highest concentration of 1.11 mM for a total of 10 concentrations.
(§7) (1) The compound to be tested was prepared. 50 nL of […] compound solution or DMSO was added to the corresponding well plate. […]
(§8) (16) Fluorescence values were measured on an Envision instrument.

PI3K δ = molecular target: T2, PI3K δ (Homo sapiens, UniProt O00329); assay: Enzyme activity test in vitro (ADP-Glo lipid kinase), PI3K δ; format: biochemical; conditions: ATP 40 μM, 120 min
T2 construct: purchased Millipore 14-604-K
T2 sequence (O00329 whole entry): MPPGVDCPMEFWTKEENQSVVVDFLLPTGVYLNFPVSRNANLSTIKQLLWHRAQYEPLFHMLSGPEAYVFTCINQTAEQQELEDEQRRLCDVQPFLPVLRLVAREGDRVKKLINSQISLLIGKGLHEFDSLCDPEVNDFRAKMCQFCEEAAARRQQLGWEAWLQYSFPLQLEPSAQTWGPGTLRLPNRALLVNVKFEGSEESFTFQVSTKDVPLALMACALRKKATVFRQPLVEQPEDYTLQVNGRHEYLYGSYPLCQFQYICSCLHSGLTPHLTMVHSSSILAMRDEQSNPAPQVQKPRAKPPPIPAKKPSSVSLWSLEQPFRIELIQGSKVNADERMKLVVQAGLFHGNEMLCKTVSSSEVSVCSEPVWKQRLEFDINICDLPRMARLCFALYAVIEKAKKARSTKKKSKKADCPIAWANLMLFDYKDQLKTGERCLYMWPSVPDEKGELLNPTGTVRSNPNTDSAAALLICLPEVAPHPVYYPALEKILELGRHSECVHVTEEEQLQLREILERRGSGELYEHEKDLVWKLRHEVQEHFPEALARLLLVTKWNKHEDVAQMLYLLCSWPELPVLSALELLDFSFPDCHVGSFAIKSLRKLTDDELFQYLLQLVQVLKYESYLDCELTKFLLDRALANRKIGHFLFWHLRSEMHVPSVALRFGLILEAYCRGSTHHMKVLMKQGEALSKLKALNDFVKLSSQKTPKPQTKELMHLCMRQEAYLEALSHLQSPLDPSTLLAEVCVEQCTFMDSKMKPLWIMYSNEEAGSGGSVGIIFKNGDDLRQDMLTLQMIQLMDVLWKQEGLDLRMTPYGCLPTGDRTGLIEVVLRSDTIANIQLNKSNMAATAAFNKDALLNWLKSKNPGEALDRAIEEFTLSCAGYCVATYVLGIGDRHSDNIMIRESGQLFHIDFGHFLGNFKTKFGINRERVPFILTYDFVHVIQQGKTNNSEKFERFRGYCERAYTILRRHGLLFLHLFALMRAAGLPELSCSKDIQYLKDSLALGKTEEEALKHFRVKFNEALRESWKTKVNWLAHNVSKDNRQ
T2 sequence (P27986 whole entry partner): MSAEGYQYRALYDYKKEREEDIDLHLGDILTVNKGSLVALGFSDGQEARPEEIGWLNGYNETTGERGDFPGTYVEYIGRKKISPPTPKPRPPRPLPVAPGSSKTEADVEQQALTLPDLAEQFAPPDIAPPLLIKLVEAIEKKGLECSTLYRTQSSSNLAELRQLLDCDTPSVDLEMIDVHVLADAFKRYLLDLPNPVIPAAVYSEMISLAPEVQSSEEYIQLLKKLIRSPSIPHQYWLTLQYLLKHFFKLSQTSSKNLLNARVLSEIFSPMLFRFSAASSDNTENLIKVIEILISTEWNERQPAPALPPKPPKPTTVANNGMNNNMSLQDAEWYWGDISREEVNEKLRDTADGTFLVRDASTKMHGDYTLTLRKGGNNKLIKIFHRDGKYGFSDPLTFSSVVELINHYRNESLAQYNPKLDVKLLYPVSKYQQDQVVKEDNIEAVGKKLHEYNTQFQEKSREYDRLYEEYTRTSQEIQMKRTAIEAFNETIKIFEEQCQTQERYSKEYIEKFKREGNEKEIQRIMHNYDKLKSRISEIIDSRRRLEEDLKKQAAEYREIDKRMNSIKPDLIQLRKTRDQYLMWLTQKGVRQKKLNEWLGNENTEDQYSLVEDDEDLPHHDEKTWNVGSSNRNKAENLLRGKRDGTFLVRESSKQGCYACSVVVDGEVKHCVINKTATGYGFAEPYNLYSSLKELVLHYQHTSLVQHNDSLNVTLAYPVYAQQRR
Experimental: as §1, §2, §3, §4, §5, §6, §7, §8

[1] = In vivo DMPK study in male CD-1 mice
Text: Experimental purpose: Male CD-1 mice were used as test animals to determine plasma concentrations of compounds after a single administration and evaluate pharmacokinetic behavior.
Experimental operation: 8 healthy adult male CD-1 mice were selected, 4 for the intravenous injection group and 4 for the oral administration group. The compound to be tested was mixed with an appropriate amount of the solvent (DMSO/solvent/water (10:10:80 v/v/v)) for the intravenous injection group. The mixture solution was vortexed and sonicated to prepare a 1.0 mg/mL clear solution, which was filtered through a microporous membrane for further use. For the oral administration group, the solvent was DMSO/solvent/water (10:10:80 v/v/v). After the compound to be tested was mixed with the solvent, the mixture solution was vortexed and sonicated to prepare a 1.0 mg/mL homogeneous suspension for further use. After 1 mg/kg intravenous administration or 3 mg/kg oral administration in mice, whole blood was collected for a certain period of time to prepare plasma, and the drug concentration was analyzed by LC-MS/MS method, then the pharmacokinetic parameters were calculated using Phoenix WinNonlin software (Pharsight, USA).

PI3K α = molecular target: T3, PI3K α (Homo sapiens, UniProt P42336); assay: Enzyme activity test in vitro (ADP-Glo lipid kinase), PI3K α; format: biochemical; conditions: ATP 40 μM, 120 min
T3 construct: purchased Millipore 14-602-K
T3 sequence (P42336 whole entry): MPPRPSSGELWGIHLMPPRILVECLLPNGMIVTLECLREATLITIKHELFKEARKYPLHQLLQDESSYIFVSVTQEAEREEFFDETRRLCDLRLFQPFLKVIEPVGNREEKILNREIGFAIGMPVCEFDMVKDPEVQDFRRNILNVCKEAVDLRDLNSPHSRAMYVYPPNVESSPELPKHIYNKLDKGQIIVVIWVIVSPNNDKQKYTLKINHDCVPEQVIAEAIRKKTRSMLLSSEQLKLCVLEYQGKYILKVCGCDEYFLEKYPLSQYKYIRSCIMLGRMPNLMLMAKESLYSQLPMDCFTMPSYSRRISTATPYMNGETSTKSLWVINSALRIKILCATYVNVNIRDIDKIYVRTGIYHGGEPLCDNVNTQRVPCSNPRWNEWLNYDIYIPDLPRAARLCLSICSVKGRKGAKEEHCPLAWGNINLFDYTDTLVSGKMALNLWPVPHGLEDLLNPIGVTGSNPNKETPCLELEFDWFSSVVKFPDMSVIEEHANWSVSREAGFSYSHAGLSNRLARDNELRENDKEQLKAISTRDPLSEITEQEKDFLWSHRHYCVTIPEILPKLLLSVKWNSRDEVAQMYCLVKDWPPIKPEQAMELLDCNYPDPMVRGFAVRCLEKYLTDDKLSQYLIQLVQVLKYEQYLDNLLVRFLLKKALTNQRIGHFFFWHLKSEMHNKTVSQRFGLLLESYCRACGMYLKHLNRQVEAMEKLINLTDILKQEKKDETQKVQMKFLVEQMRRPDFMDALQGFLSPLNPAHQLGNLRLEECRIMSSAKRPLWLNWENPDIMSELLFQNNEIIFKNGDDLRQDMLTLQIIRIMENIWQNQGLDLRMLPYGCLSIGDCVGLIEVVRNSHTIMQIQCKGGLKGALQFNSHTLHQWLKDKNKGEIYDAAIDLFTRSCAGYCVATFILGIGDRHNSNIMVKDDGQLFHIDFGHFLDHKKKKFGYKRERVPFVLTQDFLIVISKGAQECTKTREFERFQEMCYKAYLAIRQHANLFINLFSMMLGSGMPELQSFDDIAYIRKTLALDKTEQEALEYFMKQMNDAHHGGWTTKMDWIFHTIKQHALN
T3 sequence (P27986 whole entry partner): as the sequence (P27986 whole entry partner) above
Experimental: as §1, §2, §3, §4, §5
For PI3K α, the compounds were diluted three-fold from the highest concentration of 0.111 mM for a total of 10 concentrations.
as §7, §8

[2] = tested on: HCC1954 cells with PIK3CA mutation; assay: Cell activity test in vitro, anti-proliferation by CTG method, HCC1954; format: cell-based; conditions: 72 hours
Experimental: By CTG method, the effect of the compound to be tested on the anti-proliferation activity of cells was determined in two cell lines, HCC1954 and HDQ-P1.
(1) HCC1954 and HDQ-P1 cells (ATCC® HTB-22™) were inoculated into 96-well plates, respectively, with 100 μL of cell complete medium per well (4000 cells/HDQ-P1 per well, 3500 cells/HCC1954 per well). Cells were cultured at 37° C., 5% CO2 for 24 hours.
(2) The cell complete medium was replaced by 100 μL of serum-free medium. The cells were starved overnight.
(3) Compounds were prepared (the starting concentration of the compound was 10 μM, and diluted 3-fold for 8 concentrations. Each concentration of the compound was then diluted 100-fold with serum-free medium), and 25 μL of the diluted compound was added to the plate containing the cells.
(4) The well plate was incubated at 37° C., 5% CO2 for 72 hours (HCC1954) or 120 hours (HDQ-P1).
(5) Subsequent operations were performed according to the instructions of the Promega CTG kit.

[3] = In vivo plasma/brain tissue distribution study in male SD rats; conditions: oral 10 mpk
Text: Experimental purpose: Male SD rats were used as test animals to determine plasma concentrations of compounds and drug concentrations of brain tissue and cerebrospinal fluid after a single administration, and to evaluate the brain entry of the compound of the present disclosure.
Experimental operation: 12 healthy adult male SD rats were selected. The compound to be tested was mixed with an appropriate amount of solvent (DMSO/solvent/water (10:10:80 v/v/v)) for the oral administration group. The mixture was vortexed and sonicated to prepare a 1.0 mg/mL clear solution for further use. After oral administration of 10 mg/kg to rats, whole blood, brain tissue, and cerebrospinal fluid for a certain period of time were collected to prepare plasma, brain homogenate, and cerebrospinal fluid. The drug concentration was analyzed by LC-MS/MS method, and the pharmacokinetic parameters were calculated by Phoenix WinNonlin software (Pharsight, USA).

PI3K γ = molecular target: T4, PI3K γ (Homo sapiens, UniProt P48736); assay: Enzyme activity test in vitro (ADP-Glo lipid kinase), PI3K γ; format: biochemical; conditions: ATP 25 μM, 120 min
T4 construct: purchased Millipore 14-558-K
T4 sequence (P48736 whole entry): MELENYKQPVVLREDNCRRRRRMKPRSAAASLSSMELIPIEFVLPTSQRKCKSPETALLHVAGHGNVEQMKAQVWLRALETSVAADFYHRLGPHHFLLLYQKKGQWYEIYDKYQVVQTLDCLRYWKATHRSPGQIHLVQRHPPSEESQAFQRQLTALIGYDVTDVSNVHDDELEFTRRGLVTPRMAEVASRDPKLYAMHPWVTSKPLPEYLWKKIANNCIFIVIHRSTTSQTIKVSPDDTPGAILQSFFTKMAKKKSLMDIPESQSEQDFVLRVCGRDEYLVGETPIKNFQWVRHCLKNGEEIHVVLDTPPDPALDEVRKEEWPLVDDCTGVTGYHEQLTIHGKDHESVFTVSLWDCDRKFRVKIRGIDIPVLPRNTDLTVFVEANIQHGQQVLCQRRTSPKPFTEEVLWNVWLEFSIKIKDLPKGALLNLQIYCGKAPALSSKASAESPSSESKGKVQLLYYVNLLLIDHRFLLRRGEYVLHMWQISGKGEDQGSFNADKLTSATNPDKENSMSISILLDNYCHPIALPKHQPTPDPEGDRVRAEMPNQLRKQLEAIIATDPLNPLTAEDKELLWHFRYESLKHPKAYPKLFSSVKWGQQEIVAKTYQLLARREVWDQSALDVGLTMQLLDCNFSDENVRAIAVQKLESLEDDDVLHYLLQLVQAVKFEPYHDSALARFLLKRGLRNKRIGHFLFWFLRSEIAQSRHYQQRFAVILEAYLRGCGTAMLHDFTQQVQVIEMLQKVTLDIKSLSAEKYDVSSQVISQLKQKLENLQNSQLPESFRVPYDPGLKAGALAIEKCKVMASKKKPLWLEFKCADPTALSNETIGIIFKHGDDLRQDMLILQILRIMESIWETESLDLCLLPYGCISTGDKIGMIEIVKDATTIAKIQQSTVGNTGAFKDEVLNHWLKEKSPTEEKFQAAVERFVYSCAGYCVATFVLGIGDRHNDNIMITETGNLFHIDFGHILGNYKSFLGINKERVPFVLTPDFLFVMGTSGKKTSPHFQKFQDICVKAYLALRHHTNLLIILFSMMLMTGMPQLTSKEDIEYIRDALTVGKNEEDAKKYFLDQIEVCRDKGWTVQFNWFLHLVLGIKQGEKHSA
Experimental: as §1, §2, §3, §4, §5, §6, §7, §8

MDR1 = assay: MDCK-MDR1 permeability test; format: in vitro ADME; conditions: dog, pH 7.4, 2.5 hours
Experimental: Compounds in DMSO stock solution were diluted to 2 μM (DMSO<1%) with a transport buffer (HBSS with 10 mM Hepes, pH 7.4) and applied to the apical side or the basolateral side of the cell monolayer. Permeation of compounds from the A to B direction or from the B to A direction was determined in duplicate. The plate was incubated for 2.5 hours in a CO2 incubator at a temperature of 37+1° C. in a saturated humidity containing 5% CO2 without shaking. In addition, the efflux rate of each compound was also determined. Compounds were quantified by LC-MS/MS analysis based on the peak area ratio of analyte/IS.
After the transport assay, cell monolayer integrity was determined using the fluorescein exclusion test. The buffer was removed from the apical and basolateral chambers. Then 75 μL of 100 μM fluorescein transport buffer and 250 μL of transport buffer were added to the apical and basolateral chambers, respectively. The plate was incubated at 37° C., 5% CO2 and saturated humidity for 30 min without shaking. After 30 min of incubation, 20 μL of fluorescein sample was collected from the apical side, and 60 μL of transport buffer was added. An 80 μL of fluorescein sample was then collected from the basolateral side. Relative fluorescence units (RFU) of fluorescein were measured at 425/528 nm (excitation/emission) with an Envision microplate reader.

[4] = Rat plasma-protein binding; format: in vitro ADME

T1 sequence (P42338 whole entry): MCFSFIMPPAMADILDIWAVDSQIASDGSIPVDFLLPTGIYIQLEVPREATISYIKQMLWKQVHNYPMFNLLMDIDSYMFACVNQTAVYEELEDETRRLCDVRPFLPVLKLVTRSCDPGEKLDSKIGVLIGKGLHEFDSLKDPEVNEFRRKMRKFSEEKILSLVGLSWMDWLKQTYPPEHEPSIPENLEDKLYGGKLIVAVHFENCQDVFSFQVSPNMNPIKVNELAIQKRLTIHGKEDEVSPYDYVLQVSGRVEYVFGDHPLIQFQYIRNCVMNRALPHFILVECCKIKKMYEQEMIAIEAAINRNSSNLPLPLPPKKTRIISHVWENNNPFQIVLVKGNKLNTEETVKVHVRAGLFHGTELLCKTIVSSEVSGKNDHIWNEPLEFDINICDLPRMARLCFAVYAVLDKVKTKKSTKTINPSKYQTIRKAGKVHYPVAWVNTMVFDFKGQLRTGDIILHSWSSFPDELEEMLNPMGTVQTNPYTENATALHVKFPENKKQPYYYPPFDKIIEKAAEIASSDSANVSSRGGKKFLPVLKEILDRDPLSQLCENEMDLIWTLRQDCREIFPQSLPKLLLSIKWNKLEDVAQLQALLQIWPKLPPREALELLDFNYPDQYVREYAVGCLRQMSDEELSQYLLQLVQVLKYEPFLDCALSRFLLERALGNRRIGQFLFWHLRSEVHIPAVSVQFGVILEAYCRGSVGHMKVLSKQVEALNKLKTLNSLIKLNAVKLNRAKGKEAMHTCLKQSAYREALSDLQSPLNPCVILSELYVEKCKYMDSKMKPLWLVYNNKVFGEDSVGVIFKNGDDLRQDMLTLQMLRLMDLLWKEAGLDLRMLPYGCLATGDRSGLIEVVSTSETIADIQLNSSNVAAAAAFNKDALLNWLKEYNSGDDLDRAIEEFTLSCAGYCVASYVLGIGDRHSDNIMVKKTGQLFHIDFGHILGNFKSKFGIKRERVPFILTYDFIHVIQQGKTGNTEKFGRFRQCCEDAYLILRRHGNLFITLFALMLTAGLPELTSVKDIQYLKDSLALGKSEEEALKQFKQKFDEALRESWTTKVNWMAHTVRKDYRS
T1 sequence (P27986 whole entry partner): as the sequence (P27986 whole entry partner) above

IC50 (PI3K β): 852 nM
IC50 (PI3K δ): 133 nM
Oral DNAUC ([1]; 3 mg/kg oral administration): 778 nM · h/mpk
clearance ([1]; male, CD-1, mouse, plasma, 1 mg/kg intravenous, read-out: Intravenous injection Cl): 26.1 mL/min/kg
half-life ([1]; male, CD-1, mouse, plasma, 1 mg/kg intravenous, read-out: Intravenous injection T1/2 (converted)): 1.2 h
Vd ([1]; male, CD-1, mouse, plasma, 1 mg/kg intravenous, read-out: Intravenous injection Vd): 1.09 L/kg
Cmax ([1]; male, CD-1, mouse, plasma, 3 mg/kg oral administration): 1760 nM
bioavailability ([1]; male, CD-1, mouse, plasma, 3 mg/kg oral vs 1 mg/kg intravenous, read-out: Oral F %): 50%
IC50 (PI3K α): 0.75 nM
IC50 [2]: 101 nM
Tmax ([3]; male, SD, rat, 10 mg/kg, brain tissue, read-out: Tmax, Brain tissue): 1 h
AUC ([3]; male, SD, rat, 10 mg/kg, cerebrospinal fluid, read-out: AUC, Cerebrospinal fluid): 0.128 µM·h
Cmax ([3]; male, SD, rat, 10 mg/kg, cerebrospinal fluid, read-out: Cmax, Cerebrospinal fluid): 60.4 nM
Tmax ([3]; male, SD, rat, 10 mg/kg, cerebrospinal fluid, read-out: Tmax, Cerebrospinal fluid): 1 h
AUC ([3]; male, SD, rat, 10 mg/kg, plasma, read-out: AUC, Plasma): 3.12 µM·h
Cmax ([3]; male, SD, rat, 10 mg/kg, plasma, read-out: Cmax, Plasma): 1520 nM
half-life ([3]; male, SD, rat, 10 mg/kg, plasma, read-out: T1/2, Plasma (converted)): 1.32 h
Tmax ([3]; male, SD, rat, 10 mg/kg, plasma, read-out: Tmax, Plasma): 0.25 h
AUC, Brain tissue ([3]; brain tissue): ND, 342 nM * h
Cmax, Brain tissue ([3]; brain tissue): 147 nM
IC50 (PI3K γ): 72 nM
Papp A→B at 2.5 h, 2 μM (MDR1): 1.99 ×10⁻⁶ cm/s
Papp B→A at 2.5 h, 2 μM (MDR1): 16 ×10⁻⁶ cm/s
fraction unbound [4]: 0.515
SMILES: C[C@H](Nc1ccc2c(c1)OCCn1cc(N3C(=O)OC[C@H]3C(F)F)nc1-2)C(N)=O [GDC-0077]
